Source: article PMC12378234, “Enzyme-mediated aminoglycoside resistance without target mimicry” (Communications Chemistry, 2025)
Values after ≈ are worked out from the molar mass of the structure shown. Values joined by “and” are separate entries in the source; they are usually repeats but may differ in a detail not shown here. Identical values can stand only once. Like-named read-outs stand apart in the source and are kept apart here.

Experiments:
[1] = system: empty pUCP18 vector transformed E. coli; test: Antibiotic susceptibility testing, endpoint MIC assay; format: cell-based; conditions: Escherichia coli; empty pUCP18 vector control E. coli; after 20 h of growth; read-out: Endpoint minimum inhibitory concentration (MIC)
Method: (§1) Ten milliliters of cultures of LB containing […] ampicillin were inoculated from glycerol stocks of transformed BL21(DE3) E. coli containing genes expressing the proteins of interest in pUCP18 vectors. Experiments were performed using 6xHis-tagged fusion-proteins, as well as untagged wild-type proteins. These cultures were incubated at 37 °C with 200 rpm agitation for 16 h. Turbidity was measured through OD600 with a NanoDrop OneC Spectrometer (Thermo Scientific). From the initial cultures, secondary 10 mL cultures were prepared with OD600 values of 0.1. These cultures were grown until OD600 values of 0.4–0.6 were reached and diluted to bring all cultures to the same OD600. Cultures were induced with 1 mM Isopropyl β-D-1-thiogalactopyranoside and incubated for 4 h. Cultures were diluted to 1 × 10^6 cells mL^−1. Two microliters of culture was added to 198 μL of LB with an appropriate aminoglycoside titration concentration. The formulated 96-well culture plate (Sarstedt) was incubated at 37 °C with 120 rpm orbital agitation. The remainder of the bacterial culture was immediately lysed and processed for Western blotting. OD600 was measured after 20 h using the Molecular Devices Spectra MAX 190 plate reader.

[2] = system: BL21(DE3) E. coli transformed with pUCP18 vector expressing AAC(3)-XIa; test: as above; format: cell-based; conditions: Escherichia coli, 20 h, read-out: Endpoint minimum inhibitory concentration (MIC)
Method: as §1

[3] = system: BL21(DE3) E. coli transformed with pUCP18 vector expressing AAC(3)-Ia; test: as above; format: cell-based; conditions: Escherichia coli, 20 h, read-out: Endpoint minimum inhibitory concentration (MIC)
Method: as §1

[4] = system: BL21(DE3) E. coli transformed with pUCP18 vector expressing AAC(3)-IIIa; test: as above; format: cell-based; conditions: Escherichia coli, 20 h, read-out: Endpoint minimum inhibitory concentration (MIC)
Method: as §1

AAC(3)-IIIa = target: T1, AAC(3)-IIIa (Pseudomonas aeruginosa, UniProt P29808); test: Isothermal titration calorimetry; format: binding, P. aeruginosa
T1 construct: 6xHis-tag (thrombin-cleavable, pET15b) (N); made in house; host or cells: LOBSTR E. coli
Method: (§2) To accurately measure protein ligand interactions, the concentration of our proteins of interest was measured spectrophotometrically using the NanoDrop OneC Spectrometer (Thermo Scientific). ITC experiments were performed on a MicroCal iTC 200 (General Electric) at 25 °C with stirring at 750 rpm. Unique buffer solutions were used for each enzyme. AAC(3)-Ia was prepared in 50 mM HEPES, pH 7, and 150 mM NaCl. AAC(3)-IIIa was prepared in 120 mM Tris, pH 7.5, and 150 mM NaCl. AAC(3)-XIa was prepared in 20 mM Tris, pH 7.5, and 150 mM NaCl. The cell contained 550 μM AAC(3)-Ia, 350 μM AAC(3)-IIIa, or 450 μM AAC(3)-XIa. All experiments also contained 5000 μM of coenzyme A trilithium salt in the cell. […] In all ITC experiments, aminoglycosides were prepared in the same buffering solution as the target protein. The ligands were injected 29 times ([…] per injection) with a 180 s interval between injections. Results were analyzed using ORIGIN software version 7E (MicroCal) using the molecular weight of a single protomer of each protein and fitted with a two-set of sites binding model (Supplementary Fig. 5). Data analysis was performed in Microsoft Excel and GraphPad5 software. One-way ANOVA and Tukey’s multiple comparison tests were used to determine the statistical significance of binding affinities.

AAC(3)-Ia = AAC(3)-Ia (Acinetobacter baumannii, UniProt D7R512); test: Isothermal titration calorimetry; format: binding
Method: as §2

AAC(3)-XIa = AAC(3)-XIa (Corynebacterium striatum, UniProt A0ABX7DED9); test: Isothermal titration calorimetry; format: binding; conditions: 25 °C, with coenzyme A, n = 3
Method: as §2

[5] = system: BL21(DE3) E. coli transformed with pUCP18 vector expressing untagged AAC(3)-IIIa; format: cell-based; conditions: E. coli expressing AAC(3)-IIIa
Method: (§3) Ten milliliters of LB containing […] ampicillin were inoculated from glycerol stocks of transformed BL21(DE3) E. coli containing genes expressing the proteins of interest in pUCP18 vectors. These cultures were incubated at 37 °C with 200 rpm agitation for 16 h. Turbidity was measured through OD600 with a NanoDrop OneC Spectrometer (Thermo Scientific). From the initial cultures, secondary 10 mL cultures were prepared with OD600 values of 0.1. These cultures were grown until OD600 values of 0.4–0.6 were reached and diluted to bring all cultures to the same OD600. Cultures were induced with 1 mM Isopropyl β-D-1-thiogalactopyranoside and incubated for 4 h. Two microliters of culture was added to 198 μL of LB with an appropriate aminoglycoside titration concentration. Each titration point was repeated n = 4 times. The formulated 96-well culture plate (Sarstedt) had OD600 measured on a 20-min interval over 17 h using a BioTek Cytation 5 Cell Imaging Multimode Reader, incubating at 37 °C with 282 cpm orbital agitation. Experiments were repeated with fresh cultures on separate days to ensure consistent trends. Data was analyzed in Microsoft Excel and GraphPad5. The remainder of the culture immediately had its RNA isolated for qPCR experiments.

[6] = system: BL21(DE3) E. coli transformed with pUCP18 vector expressing untagged AAC(3)-XIa; format: cell-based; conditions: E. coli expressing AAC(3)-XIa
Method: as §3

[7] = system: BL21(DE3) E. coli transformed with pUCP18 vector expressing untagged AAC(3)-Ia; format: cell-based; conditions: E. coli expressing AAC(3)-Ia
Method: as §3

[8] = system: CNC(C)C1CCC(N)C(OC2C(N)CC(N)C(OC3OCC(C)(O)C(NC)C3O)C2O)O1; test: purified protein, by the assay type; conditions: other: AAC(3)-IIIa, 22 °C, pH 6.5, 150 μM acetyl coenzyme A, n = 3
Method: The acetylation of aminoglycosides was measured by a coupled assay, where the formation of pyridine-4-thiolate can be detected at 324 nm[42],[43]. The kinetic assays were performed at room temperature (22 °C) in quartz cuvettes (pathlength 1 cm) at a final volume of 0.8 mL. Reaction solution contained 25 mM MOPS pH 6.5, 100 mM NaCl, 500 μM 4,4’-dipyridyl disulfide (Aldrithiol™-4, Sigma-Aldrich), 150 μM acetyl coenzyme A, and aminoglycoside concentrations varying from 1.25 to 160 μM. […] All reactions were run in triplicate, and data analysis was performed using GraphPad5 software. One-way ANOVA and Tukey’s multiple comparison tests were used to determine the statistical significance of catalytic efficiencies.

[9] = target: AAC(3)-Ia from Acinetobacter baumannii (Acinetobacter baumannii); test: crystal structure; AAC(3)-Ia with CoASH, with or without sisomicin; sitting-drop vapor diffusion at 22 °C, 0.1 M Tris pH 8.5, 0.05 M MgCl2, 20% EtOH, 35% PEG 400; one protomer per asymmetric unit, dimer by crystallographic symmetry
[10] = system: CN[C@@H]1[C@@H](O)[C@@H](O[C@@H]2[C@@H](O)[C@H](O[C@H]3OC(CN)=CC[C@H]3N)[C@@H](N)C[C@H]2N)OC[C@]1(C)O; test: Michaelis-Menten kinetics, coupled acetylation assay (pyridine-4-thiolate at 324 nm); format: biochemical, Corynebacterium striatum; conditions: other: AAC(3)-XIa, 22 °C, pH 6.5, 150 μM acetyl coenzyme A, n = 3
Method: (§4) The acetylation of aminoglycosides was measured by a coupled assay, where the formation of pyridine-4-thiolate can be detected at 324 nm[42],[43]. The kinetic assays were performed at room temperature (22 °C) in quartz cuvettes (pathlength 1 cm) at a final volume of 0.8 mL. Reaction solution contained 25 mM MOPS pH 6.5, 100 mM NaCl, 500 μM 4,4’-dipyridyl disulfide (Aldrithiol™-4, Sigma-Aldrich), 150 μM acetyl coenzyme A, and aminoglycoside concentrations varying from 1.25 to 160 μM. The reaction was initialized by the addition of AAC(3)-Ia to a final concentration of 0.2 μM, AAC(3)-XIa to a final concentration of 1.94 μM, or AAC(3)-IIIa to a final concentration of 0.4 μM, where UV absorbance was measured over 5 min. All reactions were run in triplicate, and data analysis was performed using GraphPad5 software. One-way ANOVA and Tukey’s multiple comparison tests were used to determine the statistical significance of catalytic efficiencies.

[11] = system: CNC(C)C1CCC(N)C(OC2C(N)CC(N)C(OC3OCC(C)(O)C(NC)C3O)C2O)O1; test: as above; format: biochemical, Corynebacterium striatum; conditions: other: AAC(3)-XIa, 22 °C, pH 6.5, 150 μM acetyl coenzyme A, n = 3
Method: as §4

[12] = target: AAC(3)-XIa from Corynebacterium striatum (Corynebacterium striatum); test: crystal structure; AAC(3)-XIa partial-apo, with AcCoA, or with CoASH/AcNHCoA and an aminoglycoside; sitting-drop vapor diffusion at 22 °C, 0.1 M trisodium acetate pH 4.6, 10–30% MPD, 0–24% PEG 200; both protomers of the dimer in the asymmetric unit
[13] = first set of sites, 25 °C, with coenzyme A, n = 3
[14] = second set of sites, 25 °C, with coenzyme A, n = 3
[15] = AAC(3)-Ia, first set of sites, 25 °C, with coenzyme A, n = 3
[16] = AAC(3)-Ia, second set of sites, 25 °C, with coenzyme A, n = 3
[17] = AAC(3)-XIa, second set of sites
[18] = 6 μg mL^−1 sisomicin, 3 μg mL^−1 gentamicin

Compound: CNC(C)C1CCC(N)C(OC2C(N)CC(N)C(OC3OCC(C)(O)C(NC)C3O)C2O)O1 (centres unmarked) [Gentamicin, gentamicin]
- MIC [1]: 6 µg/mL (≈ 12.6 µM)
- MIC [2]: 12 µg/mL (≈ 25.1 µM)
- MIC [3]: 6 µg/mL (≈ 12.6 µM)
- MIC [4]: 12 µg/mL (≈ 25.1 µM)
- TΔS (AAC(3)-IIIa; [13]): 3.6 ± 0.053 kcal/mol
- ΔG (AAC(3)-IIIa; [13]): -6.94 ± 0.077 kcal/mol
- ΔH (AAC(3)-IIIa; [13]): -3.34 ± 0.056 kcal/mol
- N (sites) (AAC(3)-IIIa; first set of sites, two-set of sites model, 25 °C, with coenzyme A, n = 3): 0.63 ± 0.01 sites
- Kd (AAC(3)-IIIa; first set of sites, two-set of sites model, 25 °C, with coenzyme A, n = 3, read-out: Kd): 8.3 ± 0.2 µM
- Kd (AAC(3)-IIIa; individual replicates, raw data behind Fig. 6, read-out: Kd): 8 µM and 8.13 µM and 8.7 µM
- N2 (sites) (AAC(3)-IIIa; [14]): 0.63 ± 0.01 sites
- TΔS 2 (AAC(3)-IIIa; [14]): 5.24 ± 0.043 kcal/mol
- ΔG 2 (AAC(3)-IIIa; [14]): -6.69 ± 0.077 kcal/mol
- ΔH 2 (AAC(3)-IIIa; [14]): -1.46 ± 0.063 kcal/mol
- Kd (AAC(3)-IIIa; second set of sites, 25 °C, with coenzyme A, n = 3, read-out: Kd2): 12.4 ± 0.5 µM
- TΔS (AAC(3)-Ia; [15]): -0.808 ± 0.343 kcal/mol
- ΔG (AAC(3)-Ia; [15]): -6.52 ± 0.418 kcal/mol
- ΔH (AAC(3)-Ia; [15]): -7.33 ± 0.238 kcal/mol
- N (sites) (AAC(3)-Ia; AAC(3)-Ia, first set of sites, two-set of sites model, 25 °C, with coenzyme A, n = 3): 0.49 ± 0.02 sites
- N2 (sites) (AAC(3)-Ia; [16]): 0.57 ± 0.02 sites
- TΔS 2 (AAC(3)-Ia; [16]): 4.24 ± 0.08 kcal/mol
- ΔG 2 (AAC(3)-Ia; [16]): -6.3 ± 0.112 kcal/mol
- ΔH 2 (AAC(3)-Ia; [16]): -2.06 ± 0.08 kcal/mol
- Kd (AAC(3)-Ia; Kd2, AAC(3)-Ia, second set of sites, 25 °C, with coenzyme A, n = 3): 23.8 ± 0.3 µM
- Kd (AAC(3)-Ia; Kd, AAC(3)-Ia, first set of sites, two-set of sites model, 25 °C, with coenzyme A, n = 3): 17.1 ± 3.2 µM
- Kd (AAC(3)-Ia; Kd, AAC(3)-Ia, individual replicates, raw data behind Fig. 6): 23.5 µM and 13.4 µM and 14.4 µM
- TΔS (AAC(3)-XIa; AAC(3)-XIa, first set of sites): -1.38 ± 0.171 kcal/mol
- ΔG (AAC(3)-XIa; AAC(3)-XIa, first set of sites): -5.38 ± 2.88 kcal/mol
- ΔH (AAC(3)-XIa; AAC(3)-XIa, first set of sites): -6.77 ± 2.87 kcal/mol
- N (sites) (AAC(3)-XIa; AAC(3)-XIa, first set of sites, two-set of sites model): 0.28 ± 0.06 sites
- N2 (sites) (AAC(3)-XIa; [17]): 0.31 ± 0.05 sites
- TΔS 2 (AAC(3)-XIa; [17]): -2.916 ± 1.036 kcal/mol
- ΔG 2 (AAC(3)-XIa; [17]): -7.042 ± 1.18 kcal/mol
- ΔH 2 (AAC(3)-XIa; [17]): -9.958 ± 0.567 kcal/mol
- Kd (AAC(3)-XIa; Kd2, AAC(3)-XIa, second set of sites): 8.5 ± 5.5 µM
- Kd (AAC(3)-XIa; Kd, AAC(3)-XIa, first set of sites, two-set of sites model): 6.1 ± 1.8 µM
- Level of resistance relative to empty vector control (OD600 growth curve) [5, 18]: greater level of resistance than the empty vector control
- Growth (OD600 growth curve) ([5]; 12 μg mL^−1 antibiotic, 17 h): none of the strains of transformed E. coli were able to grow at all
- Level of resistance relative to empty vector control (OD600 growth curve) [6, 18]: greater level of resistance than the empty vector control
- Growth (OD600 growth curve) ([6]; 12 μg mL^−1 antibiotic, 17 h): none of the strains of transformed E. coli were able to grow at all
- Growth (OD600 growth curve) ([7]; 12 μg mL^−1 antibiotic, 17 h): none of the strains of transformed E. coli were able to grow at all
- Level of resistance relative to empty vector control (OD600 growth curve) ([7]; all concentrations tested): unable to outperform the empty vector control in any experiments

Compound: AAC(3)-IIIa (Pseudomonas aeruginosa)
- Km [8]: 13 ± 4 µM
- kcat [8]: 36 ± 5 s⁻¹
- kcat/Km [8]: 2.7e+06 ± 1.1e+06 M⁻¹ s⁻¹

Compound: AAC(3)-Ia from Acinetobacter baumannii (enzyme)
- stoichiometry N [9]: 2

Compound: AAC(3)-XIa (Corynebacterium striatum)
- Km [10]: 6.8 ± 0.7 µM
- kcat [10]: 0.4 ± 0.01 s⁻¹
- kcat/Km [10]: 60000 ± 10000 M⁻¹ s⁻¹
- Km [11]: 0.8 ± 0.2 µM
- kcat [11]: 0.2 ± 0.003 s⁻¹
- kcat/Km [11]: 200000 ± 40000 M⁻¹ s⁻¹

Compound: AAC(3)-XIa from Corynebacterium striatum (enzyme)
- stoichiometry N [12]: 2
